# Test results from patent US9006442B2, “Cannabinoid receptor modulators” (Lupin Limited, priority 2011, dated 2015).
# pEC50: −log10 of the molar value. Where two headings read alike, the source gives them in different places.
# How the values were obtained:
# rats [1] = experiment: FCA-induced inflammatory allodynia, paw withdrawal threshold, von Frey filaments; format: in vivo; settings: mechanical allodynia 7 days after FCA injection, dose 10 mg/kg
# Experimental: FCA (Freund's Complete Adjuvant)—Induced Inflammatory Allodynia:
# An emulsion of Freund's Complete Adjuvant (FCA), containing heat killed Mycobacterium tuberculosis (4 mg/ml) in incomplete Freund's adjuvant and saline (1:1) at a final concentration of 2 mg/ml, when injected (150 μl) into the plantar region of the paw of rats induces an inflammatory pain. Mechanical allodynia (7 days after injection) was assessed by measuring hind paw withdrawal thresholds with von Frey filaments. The 50% paw withdrawal threshold was determined using up and down method of Dixon and as per the Chaplan method.
# rats [2] = experiment: Chronic constriction injury (CCI)-induced neuropathic pain (Bennett's model), mechanical allodynia, von Frey filaments; format: in vivo; settings: CCI of sciatic nerve, mechanical allodynia after 10-15 days, dose 10 mg/kg
# Experimental: Chronic Constriction Injury (CCI)—Induced Neuropathic Pain (Bennett's Model):
# Chronic constriction injury (CCI) of sciatic nerve in rats induces mechanical allodynia in this Bennet's neuropathic pain model. Rats were anesthetized using ketamine/xylazine (50/5 mg/kg, i.p.) and the left sciatic nerve was exposed at mid thigh level through a small incision. Four loose ligatures of 4-0 chromic cat gut (Ethicon—Johnson & Johnson) at 1 mm space were placed around the sciatic nerve after the bifurcation of common sciatic nerve. After 10-15 days, mechanical allodynia was assessed by measuring hind paw withdrawal thresholds with von Frey filaments. The 50% paw withdrawal threshold was determined using up and down method of Dixon and as per the Chaplan method.
# hCB2 = hCB2 (Homo sapiens, UniProt P34972); experiment: cAMP determination in functional hCB2-CHO stable cells (HTRF); format: cell-based
# Experimental: In-Vitro Assay Method for Determination of cAMP in Functional hCB2—CHO Stable Cells:
# Recombinant CHO-hCB2 cells (procured from Perkin Elmer Inc. USA) were propagated and maintained in Ham's F-12 complete medium containing 10% heat inactivated FBS (Sigma.UK) and 1× penstrep. For assay, 0.1×10^6 to 1.0×10^6 CHO-hCB2 cells were seeded in T-25 flask and grown to mid-log phase in culture media without antibiotics for 2-3 days. […] The test is performed in 96^1/2 area black well plates. For agonist testing, 20 μl cells/well were mixed with 20 μl of sample and 10 μl of forskolin (with final concentration of 10 μM) and incubated for 20 to 40 min at room temperature in incubator. The plate was then processed for the cAMP determination using cAMP Femto-2 HTRF kit (Cisbio, Germany) as per the manual.
# The concentration of compound required to stimulate a half-maximal response (EC50) was determined using the GraphPad Prism software (version 5).
# rats [3] = experiment: FCA (Freund's Complete Adjuvant)-induced inflammatory hyperalgesia, paw withdrawal threshold, Dynamic plantar aesthesiometer; format: in vivo; settings: mechanical hyperalgesia 3 days post-FCA
# Experimental: FCA (Freund's Complete Adjuvant)—Induced Inflammatory Hyperalgesia:
# Freund's Complete Adjuvant (FCA), containing heat killed Mycobacterium tuberculosis (2 mg/ml) in incomplete Freund's adjuvant, injected (50 μl) into the plantar region of the paw of rats induces an inflammatory pain. Mechanical hyperalgesia (3 days post-FCA) was assessed by measuring hind paw withdrawal thresholds with Dynamic planter aesthesiometer.
# human CB1 = biological target: T1, human CB1 (Homo sapiens, UniProt P21554); experiment: cAMP determination in functional hCB1-HEK stable cells (HTRF); format: cell-based
# T1 construct: expressed in transfected cells
# Experimental: In-Vitro Assay Method for Determination of cAMP in Functional hCB1—HEK Stable Cells:
# U.S.A), 400 μg/ml of G418 and lx penstrep. For assay, 0.6-1.0×10^6 hCB1-HEK cells were seeded in T-25 flask and grown to mid-log phase in complete culture medium as mentioned above for 2-3 days. One day prior to assay, cell monolayer was washed once with PBS (pH.7.4) and then serum starved for overnight in DMEM medium containing 0.2% bovine serum albumin (devoid of antibiotics, FBS and penstrep). […] The test is performed in 96^1/2 area black well plates. For agonist testing, 20 μl cells/well were mixed with 20 μl of compound and 10 μl of forskolin (with final concentration of 10 μM) and incubated for 40 min at 25° C. incubator. The plates were then processed for cAMP determination using cAMP Femto-2 HTRF kit (Cisbio, Germany) as per the kit manual.
# [4] = CHO-hCB2 cells, cAMP, forskolin 10 μM, agonist testing, read-out: EC50 Range
# Chain of hCB2 (P34972 whole entry): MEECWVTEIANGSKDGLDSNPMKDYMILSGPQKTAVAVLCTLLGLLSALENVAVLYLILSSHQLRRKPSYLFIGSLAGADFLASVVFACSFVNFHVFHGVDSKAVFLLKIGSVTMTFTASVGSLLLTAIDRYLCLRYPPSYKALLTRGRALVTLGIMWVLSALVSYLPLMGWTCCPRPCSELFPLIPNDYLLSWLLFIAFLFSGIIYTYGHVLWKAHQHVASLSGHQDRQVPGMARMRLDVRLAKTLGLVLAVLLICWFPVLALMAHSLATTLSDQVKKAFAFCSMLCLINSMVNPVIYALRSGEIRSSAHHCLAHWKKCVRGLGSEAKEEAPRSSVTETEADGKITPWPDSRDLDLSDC
# T1 sequence (P21554 whole entry): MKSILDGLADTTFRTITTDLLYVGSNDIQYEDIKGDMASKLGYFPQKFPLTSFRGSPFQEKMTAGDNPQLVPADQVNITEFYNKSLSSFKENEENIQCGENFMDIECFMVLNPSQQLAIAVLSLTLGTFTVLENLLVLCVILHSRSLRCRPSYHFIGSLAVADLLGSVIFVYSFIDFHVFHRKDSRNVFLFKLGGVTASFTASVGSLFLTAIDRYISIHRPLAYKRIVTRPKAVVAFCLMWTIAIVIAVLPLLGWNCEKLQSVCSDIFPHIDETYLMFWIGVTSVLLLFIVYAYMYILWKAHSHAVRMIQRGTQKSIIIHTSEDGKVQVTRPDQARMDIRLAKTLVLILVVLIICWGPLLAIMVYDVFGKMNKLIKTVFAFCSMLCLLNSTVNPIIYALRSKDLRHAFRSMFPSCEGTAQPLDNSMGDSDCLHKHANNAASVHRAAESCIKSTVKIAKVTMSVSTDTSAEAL
smiles,measurement,setting,value
"Cc1cccc2c(Nc3cccc(Cl)c3)ncc(C(=O)N3CCCCC3)c12 [Example-22, (1-((3-Chlorophenyl)amino)-5-methylisoquinolin-4-yl)(piperidin-1-yl)methanone]","% Improvement (MEAN ± S.E.M.) in Paw withdrawal Threshold, 1 h",rats [1],17.7 ± 7.1%
same,"% Improvement (MEAN ± S.E.M.) in Paw withdrawal Threshold, 2 h",rats [1],30.7 ± 8.8 %
same,"% Improvement (MEAN ± S.E.M.) in Paw withdrawal Threshold, 1 h",rats [2],61.8 ± 10.1 %
same,"% Improvement (MEAN ± S.E.M.) in Paw withdrawal Threshold, 2 h",rats [2],70.2 ± 9.5 %
same,pEC50,hCB2,> 8.00
"Cc1cccc2c(Nc3cccc(C(F)(F)F)c3)ncc(C(=O)N3CC4CC(C3)O4)c12 [Example-40, 6-Oxa-3-azabicyclo[3.1.1]heptan-3-yl(5-methyl-1-((3-(trifluoromethyl)phenyl)amino)isoquinolin-4-yl)methanone]","% Improvement (MEAN ± S.E.M.) in Paw withdrawal Threshold, 1 h",rats [1],12.8 ± 4.6%
same,"% Improvement (MEAN ± S.E.M.) in Paw withdrawal Threshold, 2 h",rats [1],13.8 ± 4.5%
same,"% Improvement (MEAN ± S.E.M.) in Paw withdrawal Threshold, 1 h",rats [2],21.6 ± 10.6%
same,"% Improvement (MEAN ± S.E.M.) in Paw withdrawal Threshold, 2 h",rats [2],11.2 ± 2.9%
same,pEC50,hCB2,> 8.00
"Cc1cccc2c(Nc3cccc(C(F)(F)F)c3F)ncc(C(=O)N(C)C)c12 [Example-257, 1-((2-Fluoro-3-(trifluoromethyl)phenyl)amino)-N,N,5-trimethyl isoquinolin-4-carboxamide]","% Improvement (MEAN ± S.E.M.) in Paw withdrawal Threshold, 1 h",rats [3]; dose 30 mg/kg,44.4 ± 23.3%
same,"% Improvement (MEAN ± S.E.M.) in Paw withdrawal Threshold, 2 h",rats [3]; dose 30 mg/kg,52.8 ± 19.1%
same,pEC50,hCB2; [4],> 8.00
"Cc1c(Cl)cccc1Nc1ccc(C(=O)N2CCOCC2)c2c(C)cccc12 [Example-155, (4-((3-Chloro-2-methylphenyl)amino)-8-methylnaphthalen-1-yl)(morpholino)methanone]",pEC50,human CB1,> 7.00
same,pEC50,hCB2,> 8.00
"Cc1cccc2c(Nc3cccc(Cl)c3)ncc(C(=O)N3CC4CC(C3)O4)c12 [Example-39, 6-Oxa-3-azabicyclo[3.1.1]heptan-3-yl(1-((3-chlorophenyl)amino)-5-methylisoquinolin-4-yl)methanone]","% Improvement (MEAN ± S.E.M.) in Paw withdrawal Threshold, 1 h",rats [1],2.10 ± 1.87%
same,"% Improvement (MEAN ± S.E.M.) in Paw withdrawal Threshold, 2 h",rats [1],10.22 ± 4.68%
same,"% Improvement (MEAN ± S.E.M.) in Paw withdrawal Threshold, 1 h",rats [2],11.6 ± 12.8%
same,"% Improvement (MEAN ± S.E.M.) in Paw withdrawal Threshold, 2 h",rats [2],0.7 ± 1.1%
same,pEC50,hCB2,> 8.00
"Cc1cccc2c(Nc3cccc(C(F)F)c3)ncc(C(=O)N3CCOCC3)c12 [Example-13, (1-(((3-Difluoromethyl)phenyl)amino)-5-methylisoquinolin-4-yl)(morpholino)methanone]",pEC50,human CB1,> 7.00
same,pEC50,hCB2,> 8.00
"O=C(c1ccc(Nc2cccc(Cl)c2)c2ccccc12)N1CCOCC1 [Example-179, (4-((3-Chlorophenyl)amino)naphthalen-1-yl)(morpholino)methanone]",pEC50,human CB1,< 7.00
same,pEC50,hCB2,> 8.00
"O=C(c1cnc(Nc2cccc(Cl)c2)c2cccc(Cl)c12)N1CCCCC1 [Example-218, (5-Chloro-1-((3-chlorophenyl)amino)isoquinolin-4-yl)(piperidin-1-yl)methanone]",pEC50,human CB1,> 7.00
"Cc1cccc2c(Oc3ccc(F)cc3Cl)ncc(C(=O)N3CCOCC3)c12 [Example-56, (1-(2-Chloro-4-fluorophenoxy)-5-methylisoquinolin-4-yl)(morpholino)methanone]",pEC50,human CB1,< 7.00
"Cc1cccc2c(Nc3cccc(C(F)(F)F)c3)ncc(C(=O)N3CCOCC3)c12 [Example-4, (5-Methyl-1-((3-(trifluoromethyl)phenyl)amino)isoquinolin-4-yl)(morpholino)methanone]","% Improvement (MEAN ± S.E.M.) in Paw withdrawal Threshold, 1 h",rats [3]; dose 10 mg/kg,60.9 ± 12 %
same,"% Improvement (MEAN ± S.E.M.) in Paw withdrawal Threshold, 2 h",rats [3]; dose 10 mg/kg,42.9 ± 8.7 %
same,"% Improvement (MEAN ± S.E.M.) in Paw withdrawal Threshold, 4 h",rats [3]; dose 10 mg/kg,43.9 ± 17.4 %
same,pEC50,hCB2,> 8.00
"Cc1cccc2c(Nc3cccc(Cl)c3)ncc(C(=O)N3CCC(F)(F)CC3)c12 [Example-241, (1-((3-Chlorophenyl)amino)-5-methylisoquinolin-4-yl)(4,4-difluoropiperidin-1-yl)methanone]",pEC50,human CB1,> 7.00
"O=C(c1ccc(Nc2cccc(F)c2)c2ccccc12)N1CCOCC1 [Example-183, (4-((3-Fluorophenyl)amino)naphthalen-1-yl)(morpholino)methanone]",pEC50,human CB1,< 7.00
same,pEC50,hCB2,6.00 to 8.00
"Cc1cccc2c(Nc3cccc(Cl)c3)ncc(C(=O)N3CCOCC3)c12 [Example-1, (1-((3-Chlorophenyl)amino)-5-methylisoquinolin-4-yl)(morpholino)methanone]",pEC50,human CB1,< 7.00
same,pEC50,hCB2,> 8.00
Cc1cccc2c(Nc3cccc(C(F)(F)F)c3)ccc(C(=O)N3CCOCC3)c12 [Example-134],"% Improvement (MEAN ± S.E.M.) in Paw withdrawal Threshold, 1 h",rats [3]; dose 10 mg/kg,6.8 ± 8.8%
same,"% Improvement (MEAN ± S.E.M.) in Paw withdrawal Threshold, 2 h",rats [3]; dose 10 mg/kg,25.8 ± 5.2%
same,"% Improvement (MEAN ± S.E.M.) in Paw withdrawal Threshold, 4 h",rats [3]; dose 10 mg/kg,−1.6 ± 8.0%
same,pEC50,hCB2,> 8.00
"Cc1cccc2c(Nc3cc(F)cc(F)c3)ncc(CN3CCOCC3)c12 [Example-225, N-(3,5-difluorophenyI)-5-methyl-4-(morpholinomethyl)isoquinolin-1-amine]",pEC50,human CB1,> 7.00
Cc1cccc2c(Nc3cccc(C(F)(F)F)c3)ccc(C(=O)N3CCCCC3)c12 [Example-143],"% Improvement (MEAN ± S.E.M.) in Paw withdrawal Threshold, 1 h",rats [3]; dose 10 mg/kg,16.7 ± 15.0%
same,"% Improvement (MEAN ± S.E.M.) in Paw withdrawal Threshold, 2 h",rats [3]; dose 10 mg/kg,25.1 ± 17.8%
same,"% Improvement (MEAN ± S.E.M.) in Paw withdrawal Threshold, 4 h",rats [3]; dose 10 mg/kg,18.3 ± 18.5%
same,pEC50,hCB2,> 8.00
"CCN(C)C(=O)c1cnc(Nc2cccc(C(F)(F)F)c2F)c2cccc(C)c12 [compound 292, N-Ethyl-1-((2-fluoro-3-(trifluoromethyl)phenyl)amino)-N,5-dimethyl isoquinolin-4-carboxamide]",pEC50,hCB2; [4],> 8.00
"CCN(CC)C(=O)c1cnc(Nc2cccc(C(F)(F)F)c2F)c2cccc(C)c12 [compound 277, N,N-Diethyl-1-((2-fluoro-3-(trifluoromethyl)phenyl)amino)-5-methyl isoquinolin-4-carboxamide]",pEC50,hCB2,> 8.00
